From paper PMC4914440 (Pharmacological research, 2016)
Read-outs that look alike come from different tables or passages of the source.

Key:
5-HT2A receptor [1] = biological target: T1, 5-HT2A receptor (Homo sapiens, UniProt P28223); assay: Intracellular calcium assay of Gq signaling, HEK293 cells; format: cell-based; conditions: for agonist efficacy class: intracellular calcium
α1β2γ2 GABAA receptors = α1β2γ2 GABAA receptors (Rattus norvegicus, UniProt P18508+P62813+P63138); assay: Whole cell electrophysiology, GABA-activated currents, HEK293 cells; format: cell-based; conditions: 30 μM; for reduction of GABA-activated currents: EC30 GABA (5 μM)
h5-HT2A = h5-HT2A (Homo sapiens, UniProt P28223)
h5-HT2C = biological target: T2, h5-HT2C (Homo sapiens, UniProt P28335); assay: Radioligand displacement by a fixed drug concentration, [3H]mesulergine
T2 sequence (P28335 33-458): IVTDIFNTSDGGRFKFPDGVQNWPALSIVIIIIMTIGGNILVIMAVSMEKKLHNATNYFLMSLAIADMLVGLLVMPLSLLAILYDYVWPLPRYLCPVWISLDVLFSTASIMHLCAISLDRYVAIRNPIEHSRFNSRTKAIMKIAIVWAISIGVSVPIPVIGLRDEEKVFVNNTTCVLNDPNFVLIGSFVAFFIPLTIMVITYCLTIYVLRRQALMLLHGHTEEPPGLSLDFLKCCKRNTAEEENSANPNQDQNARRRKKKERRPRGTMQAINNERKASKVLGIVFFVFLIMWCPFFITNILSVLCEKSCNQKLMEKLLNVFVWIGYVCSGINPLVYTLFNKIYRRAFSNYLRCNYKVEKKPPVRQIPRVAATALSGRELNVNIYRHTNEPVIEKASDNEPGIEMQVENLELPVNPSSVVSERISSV

r5-HT6 = r5-HT6 (Rattus norvegicus, UniProt P31388); assay: Radioligand displacement by a fixed drug concentration, [3H]LSD
[2] = cited from earlier work
5-HT2A receptor [3] = biological target: T1, 5-HT2A receptor; conditions: cloned human 5-HT2A receptor; cited from earlier work
M3 muscarinic receptor = M3 muscarinic receptor (Homo sapiens, UniProt P20309); assay: Intracellular calcium assay, untransfected HEK293 cells with endogenous receptor; format: cell-based
untransfected CHO cells = assay: Intracellular calcium assay, control cells; format: cell-based; conditions: data not shown
5-HT6 receptor [4] = biological target: T3, 5-HT6 receptor (Rattus norvegicus, UniProt P31388); assay: cAMP-Glo assay of Gs signaling, HeLa cells; format: cell-based
untransfected HeLa cells = assay: cAMP-Glo assay, control cells; format: cell-based, human; conditions: efavirenz 30 μM, clozapine 30 μM, 5-HT 1 μM
5-HT6 receptor [5] = biological target: T3, 5-HT6 receptor; assay: Competition radioligand binding, concentration-response
[6] = test system: endogenous β-adrenergic receptor; assay: cAMP-Glo assay, untransfected HeLa cells stimulated with; format: cell-based, human

Sequence of r5-HT6 (P31388 whole entry): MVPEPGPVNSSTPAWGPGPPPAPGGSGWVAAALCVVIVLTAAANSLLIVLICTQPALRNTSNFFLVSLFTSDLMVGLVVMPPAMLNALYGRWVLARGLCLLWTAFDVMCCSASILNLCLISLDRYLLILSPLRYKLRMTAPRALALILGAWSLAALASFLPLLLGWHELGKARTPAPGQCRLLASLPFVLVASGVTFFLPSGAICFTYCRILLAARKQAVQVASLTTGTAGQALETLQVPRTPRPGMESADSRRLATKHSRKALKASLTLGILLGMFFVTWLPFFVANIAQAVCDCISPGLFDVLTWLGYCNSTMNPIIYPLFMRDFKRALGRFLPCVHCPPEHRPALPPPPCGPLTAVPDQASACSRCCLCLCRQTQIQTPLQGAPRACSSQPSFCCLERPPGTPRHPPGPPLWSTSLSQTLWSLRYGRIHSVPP
T3 sequence (P31388 whole entry): as above
T1 sequence (P28223 whole entry): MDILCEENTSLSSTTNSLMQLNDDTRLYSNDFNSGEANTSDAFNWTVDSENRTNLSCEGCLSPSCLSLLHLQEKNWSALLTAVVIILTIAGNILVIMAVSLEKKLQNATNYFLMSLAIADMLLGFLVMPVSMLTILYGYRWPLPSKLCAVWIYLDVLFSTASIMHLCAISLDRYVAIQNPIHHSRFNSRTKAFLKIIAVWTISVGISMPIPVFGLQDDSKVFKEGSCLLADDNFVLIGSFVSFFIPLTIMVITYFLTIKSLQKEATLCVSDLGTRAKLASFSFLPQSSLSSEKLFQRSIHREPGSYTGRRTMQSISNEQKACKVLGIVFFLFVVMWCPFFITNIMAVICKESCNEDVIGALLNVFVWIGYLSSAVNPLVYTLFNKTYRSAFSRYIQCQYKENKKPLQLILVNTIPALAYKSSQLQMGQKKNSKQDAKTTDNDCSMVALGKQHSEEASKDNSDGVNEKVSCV
Sequence of α1β2γ2 GABAA receptors (P62813 28-455): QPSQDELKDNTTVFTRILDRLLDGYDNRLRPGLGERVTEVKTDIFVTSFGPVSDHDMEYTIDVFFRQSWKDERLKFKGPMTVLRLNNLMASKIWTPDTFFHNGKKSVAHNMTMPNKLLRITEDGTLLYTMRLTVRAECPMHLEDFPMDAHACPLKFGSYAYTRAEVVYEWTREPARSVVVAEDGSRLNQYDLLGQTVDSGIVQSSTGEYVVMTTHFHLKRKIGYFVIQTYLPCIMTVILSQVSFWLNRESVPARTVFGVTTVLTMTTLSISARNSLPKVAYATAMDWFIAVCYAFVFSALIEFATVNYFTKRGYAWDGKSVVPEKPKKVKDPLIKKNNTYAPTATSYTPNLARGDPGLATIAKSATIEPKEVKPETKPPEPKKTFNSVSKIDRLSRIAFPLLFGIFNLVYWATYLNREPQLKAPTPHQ
Sequence of α1β2γ2 GABAA receptors (P63138 26-474): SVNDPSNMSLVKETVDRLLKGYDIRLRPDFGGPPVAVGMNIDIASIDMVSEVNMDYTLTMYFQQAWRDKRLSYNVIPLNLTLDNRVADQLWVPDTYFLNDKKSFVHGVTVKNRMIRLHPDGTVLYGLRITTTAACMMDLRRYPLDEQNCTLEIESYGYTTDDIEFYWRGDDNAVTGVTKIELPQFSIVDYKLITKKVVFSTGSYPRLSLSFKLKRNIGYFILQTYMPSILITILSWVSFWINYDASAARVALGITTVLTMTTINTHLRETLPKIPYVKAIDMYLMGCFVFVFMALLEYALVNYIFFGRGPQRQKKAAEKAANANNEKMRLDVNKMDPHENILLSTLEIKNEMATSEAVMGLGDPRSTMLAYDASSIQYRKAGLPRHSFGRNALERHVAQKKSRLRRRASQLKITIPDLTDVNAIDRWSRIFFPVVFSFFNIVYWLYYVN
Sequence of α1β2γ2 GABAA receptors (P18508 39-466): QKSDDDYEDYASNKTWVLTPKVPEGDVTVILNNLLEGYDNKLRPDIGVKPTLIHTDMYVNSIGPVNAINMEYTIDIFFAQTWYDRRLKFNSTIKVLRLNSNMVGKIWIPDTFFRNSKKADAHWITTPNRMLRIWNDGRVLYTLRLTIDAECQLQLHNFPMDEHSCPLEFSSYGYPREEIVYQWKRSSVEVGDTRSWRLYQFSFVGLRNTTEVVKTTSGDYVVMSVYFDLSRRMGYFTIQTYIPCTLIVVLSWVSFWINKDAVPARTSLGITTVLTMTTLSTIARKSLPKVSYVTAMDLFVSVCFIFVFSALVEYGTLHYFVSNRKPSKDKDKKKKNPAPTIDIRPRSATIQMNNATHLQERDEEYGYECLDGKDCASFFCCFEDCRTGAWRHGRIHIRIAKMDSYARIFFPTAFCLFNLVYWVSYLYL
Sequence of M3 muscarinic receptor (P20309 whole entry): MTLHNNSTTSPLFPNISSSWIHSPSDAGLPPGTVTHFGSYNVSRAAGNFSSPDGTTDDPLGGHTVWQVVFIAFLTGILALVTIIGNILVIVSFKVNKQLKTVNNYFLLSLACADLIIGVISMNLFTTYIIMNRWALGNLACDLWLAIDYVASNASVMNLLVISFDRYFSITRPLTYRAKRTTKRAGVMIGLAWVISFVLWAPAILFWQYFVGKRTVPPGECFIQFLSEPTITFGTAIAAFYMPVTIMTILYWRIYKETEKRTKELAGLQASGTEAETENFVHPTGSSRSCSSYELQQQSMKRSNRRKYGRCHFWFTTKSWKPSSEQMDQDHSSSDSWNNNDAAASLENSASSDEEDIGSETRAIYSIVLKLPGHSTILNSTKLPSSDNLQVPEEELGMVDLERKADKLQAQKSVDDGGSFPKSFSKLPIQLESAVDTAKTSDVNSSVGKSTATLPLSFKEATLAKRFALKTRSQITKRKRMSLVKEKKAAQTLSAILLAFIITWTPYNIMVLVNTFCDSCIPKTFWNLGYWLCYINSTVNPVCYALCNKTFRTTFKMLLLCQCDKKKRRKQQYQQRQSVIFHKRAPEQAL
Sequence of h5-HT2A (P28223 whole entry): as the sequence (P28223 whole entry) above

COc1cc(CC(C)N)c(OC)cc1I (racemic) [(±)-DOI]
agonist efficacy class (5-HT2A receptor [1]): partial agonists

Nc1nc(=O)n([C@@H]2CS[C@H](CO)O2)cc1F [FTC]
reduction of GABA-activated currents (α1β2γ2 GABAA receptors): 36–50 % of control | interaction (radioligand displacement) (h5-HT2A; 10 μM ARV drug, data not shown): no significant interactions | interaction (radioligand displacement) (h5-HT2A; 60 μM ARV drug): only NVP displayed a significant, albeit comparatively weak interaction, with the 5-HT6 receptor | interaction (radioligand displacement) (h5-HT2C; 10 μM ARV drug, data not shown): no significant interactions | interaction (radioligand displacement) (h5-HT2C; 60 μM ARV drug): only NVP displayed a significant, albeit comparatively weak interaction, with the 5-HT6 receptor | interaction (radioligand displacement) (r5-HT6; 10 μM ARV drug, data not shown): no significant interactions | interaction (radioligand displacement) (r5-HT6; 60 μM ARV drug): only NVP displayed a significant, albeit comparatively weak interaction, with the 5-HT6 receptor

CCN(CC)C(=O)[C@@H]1C=C2c3cccc4[nH]cc(c34)C[C@H]2N(C)C1 [LSD, Lysergic acid diethylamide]
substitution when efavirenz was the discriminative stimulus [2]: partially substituted for efavirenz | agonist efficacy class (5-HT2A receptor [1]): partial agonists

COc1cccc([C@H](O)C2CCN(CCc3ccc(F)cc3)CC2)c1OC [MDL100,907]
effect of pretreatment on efavirenz substitution for LSD [2]: this substitution was blocked by pretreatment

Cc1ccnc2c1NC(=O)c1cccnc1N2C1CC1 [NVP]
potentiation of GABA-activated currents (α1β2γ2 GABAA receptors; co-application with GABA): 8% | interaction (radioligand displacement) (h5-HT2C; 10 μM ARV drug, data not shown): no significant interactions | interaction (radioligand displacement) (h5-HT2C; 60 μM ARV drug): only NVP displayed a significant, albeit comparatively weak interaction, with the 5-HT6 receptor | interaction (radioligand displacement) (r5-HT6; 10 μM ARV drug, data not shown): no significant interactions | interaction (radioligand displacement) (r5-HT6; 60 μM ARV drug): significant, albeit comparatively weak interaction | affinity lower than for efavirenz (r5-HT6; 5-HT6 receptor, estimated): approximately 30 fold

Cc1cn([C@H]2C[C@H](N=[N+]=[N-])[C@@H](CO)O2)c(=O)[nH]c1=O [ZDV]
reduction of GABA-activated currents (α1β2γ2 GABAA receptors): 36–50 % of control | interaction (radioligand displacement) (h5-HT2C; 10 μM ARV drug, data not shown): no significant interactions | interaction (radioligand displacement) (h5-HT2C; 60 μM ARV drug): only NVP displayed a significant, albeit comparatively weak interaction, with the 5-HT6 receptor | interaction (radioligand displacement) (r5-HT6; 10 μM ARV drug, data not shown): no significant interactions | interaction (radioligand displacement) (r5-HT6; 60 μM ARV drug): only NVP displayed a significant, albeit comparatively weak interaction, with the 5-HT6 receptor

CN1CN(c2ccccc2)C2(CCN(CCCC(=O)c3ccc(F)cc3)CC2)C1=O [[^3H]MSP, [3H]methylspiperone]
Kd (5-HT2A receptor [3]): 0.246 nM

CC(=O)OCC[N+](C)(C)C [acetylcholine]
receptor activation (M3 muscarinic receptor): activated | Gq-mediated response (untransfected CHO cells): No Gq-mediated response

C[N+](C)(C)CCOC(N)=O [carbachol]
Gq-mediated response (untransfected CHO cells): No Gq-mediated response

CN1CCN(C2=Nc3cc(Cl)ccc3Nc3ccccc32)CC1 [clozapine]
effect on 5-HT agonist effect (5-HT6 receptor [4]; 30 μM): completely overcame the agonist effects of 5-HT but also reduced cAMP levels to below basal | effect on basal cAMP (5-HT6 receptor [4]; 30 μM): significantly reduced basal levels of cAMP | change in cAMP levels (untransfected HeLa cells): no significant changes in cAMP levels

CN1[C@@H]2C[C@@H](OC(=O)[C@H](CO)c3ccccc3)C[C@H]1[C@@H]1O[C@@H]12 [scopolamine]
block of acetylcholine response (M3 muscarinic receptor): blocked

NCCc1c[nH]c2ccc(O)cc12 [serotonin, 5-Hydroxytryptamine]
EC50 (5-HT6 receptor [4]): 12.7 ± 6.2 nM | pseudo Hill slope (5-HT6 receptor [4]; increase in cAMP): 1.02 ± 0.35 | pseudo Hill slope range (5-HT2A receptor [1]; across serum conditions): 0.55–0.70 | Ki (5-HT6 receptor [5]): 105 ± 8 nM | change in cAMP levels (untransfected HeLa cells): no significant changes in cAMP levels

CC(C)(C)NC[C@H](O)COc1nsnc1N1CCOCC1 [timolol]
effect on (−)-epinephrine stimulated cAMP response [6]: blocked
